Assay results reported in paper PMC5118987 (Antimicrobial Agents and Chemotherapy, 2016).

What was measured:
Influenza A/PC/1/73 = experiment: microbe, parasite or virus in culture; type: cell-based; settings: NHBE
Influenza B/LEE/40 = experiment: microbe, parasite or virus in culture; type: cell-based; settings: NHBE
in vitro [1] = settings: human
HIV-2 CDC 310319 = experiment: Antiviral assay against HIV-2 isolate in fresh human PBMCs (RT endpoint); settings: Human immunodeficiency virus 2, PBMC
HIV-1 clinical isolates = experiment: Antiviral assay against HIV-1 clinical isolates in fresh human PBMCs (RT endpoint)
in vitro [2] = settings: human; remark: listed apart in the source
in vitro [3] = settings: human; remark: listed apart in the source
HCV 1b Replicon = experiment: Anti-HCV activity, HCV 1b replicon; settings: Hepatitis C virus, Huh-7
HCV 2a Replicon = experiment: Anti-HCV activity, HCV 2a replicon; settings: Hepatitis C virus, Huh-7
[4] = test system: HRV (mixture of HRV1A, HRV14, HRV16); experiment: microbe, parasite or virus in culture; type: cell-based; settings: Human rhinovirus sp., H1-HeLa
in vitro [5] = settings: human; remark: listed apart in the source
RSV strain A2 = experiment: microbe, parasite or virus in culture; type: cell-based, respiratory syncytial virus; settings: read-out: EC50

**Q.** With Nc1nc2c(ncn2[C@@H]2O[C@H](CO)[C@@H](O)[C@H]2F)c(=O)[nH]1 [2'-FDG, 2′-fluoro-2′-deoxyguanosine] as the compound, how does the EC50 (Influenza A/PC/1/73) read?
**A.** 6000 nM

**Q.** And the EC50 (Influenza B/LEE/40)?
**A.** 14000 nM

**Q.** And the CC50 (in vitro [1])?
**A.** > 100000 nM

**Q.** For Cc1cn([C@H]2C[C@H](N=[N+]=[N-])[C@@H](CO)O2)c(=O)[nH]c1=O [AZT, zidovudine], which EC50 (HIV-2 CDC 310319) is on record?
**A.** 9.3 ± 4.6 nM

**Q.** And the EC50 (HIV-1 clinical isolates; Human immunodeficiency virus 1, BAL, PBMC, HIV-1 subtype B isolate BaL, human PBMCs)?
**A.** 3.8 ± 0.6 nM

**Q.** What about the EC50 (HIV-1 clinical isolates; Human immunodeficiency virus 1, PBMC, HIV-1 subtype A isolate 92RW016, human PBMCs) of the same compound?
**A.** 2 ± 0.3 nM

**Q.** And the EC50 (HIV-1 clinical isolates; Human immunodeficiency virus 1, PBMC, HIV-1 subtype A isolate 92UG037, human PBMCs)?
**A.** 11.2 ± 3.7 nM

**Q.** And the EC50 (HIV-1 clinical isolates; Human immunodeficiency virus 1, PBMC, HIV-1 subtype B isolate 89BZ_167, human PBMCs)?
**A.** 3.6 ± 0.8 nM

**Q.** What about the EC50 (HIV-1 clinical isolates; Human immunodeficiency virus 1, PBMC, HIV-1 subtype B isolate 91US001, human PBMCs) of the same compound?
**A.** 5.5 ± 2.5 nM

**Q.** And the EC50 (HIV-1 clinical isolates; Human immunodeficiency virus 1, PBMC, HIV-1 subtype B isolate 91US004, human PBMCs)?
**A.** 2.6 ± 1.5 nM

**Q.** And the EC50 (HIV-1 clinical isolates; Human immunodeficiency virus 1, PBMC, HIV-1 subtype C isolate 93IN905, human PBMCs)?
**A.** 1.6 ± 0.7 nM

**Q.** And the EC50 (HIV-1 clinical isolates; Human immunodeficiency virus 1, PBMC, HIV-1 subtype C isolate 98US_MSC5016, human PBMCs)?
**A.** 7.9 ± 4.4 nM

**Q.** What about the EC50 (HIV-1 clinical isolates; Human immunodeficiency virus 1, PBMC, HIV-1 subtype D isolate 98UG_57128, human PBMCs) of the same compound?
**A.** 0.07 ± 0.03 nM

**Q.** And the EC50 (HIV-1 clinical isolates; Human immunodeficiency virus 1, PBMC, HIV-1 subtype E isolate 96TH_M02138, human PBMCs)?
**A.** 5.5 ± 0.4 nM

**Q.** And the EC50 (HIV-1 clinical isolates; Human immunodeficiency virus 1, PBMC, HIV-1 subtype E isolate 96TH_NI1046, human PBMCs)?
**A.** 2.3 ± 0.7 nM

**Q.** What about the EC50 (HIV-1 clinical isolates; Human immunodeficiency virus 1, PBMC, HIV-1 subtype F isolate 93BR020, human PBMCs) of the same compound?
**A.** 8.1 ± 7.1 nM

**Q.** With C[C@@]1(O)[C@H](O)[C@@H](CO)O[C@H]1n1cnc2c(N)ncnc21 [Compound 2-CMeA, 2′-C-methyladenosine] as the compound, how does the CC50 (in vitro [2]) read?
**A.** 42200 nM

**Q.** What about the CC50 (in vitro [3]) of the same compound?
**A.** > 44000 nM

**Q.** And the EC50 (HCV 1b Replicon)?
**A.** 112 nM

**Q.** And the EC50 (HCV 2a Replicon)?
**A.** 301 nM

**Q.** With CCOC(=O)/C=C/[C@H](C[C@@H]1CCNC1=O)NC(=O)[C@@H](CC(=O)[C@@H](NC(=O)c1cc(C)on1)C(C)C)Cc1ccc(F)cc1 [Rupintrivir, rupintrivir] as the compound, how does the EC50 [4] read?
**A.** 30 nM

**Q.** And the CC50 (in vitro [5])?
**A.** > 10000 nM

**Q.** With O=C(NC1CC1)c1cc2c(s1)-c1ccccc1N(C(=O)c1ccc(NC(=O)c3ccccc3-c3ccccc3)cc1)CC2 [YM-53403] as the compound, how does the EC50 (RSV strain A2) read?
**A.** 350 nM

**Q.** What about the CC50 (HEp-2 Cells) of the same compound?
**A.** > 50000 nM
